Laboratory results as given in paper PMC10467532, “Design, synthesis, and biological evaluation of thiazole/thiadiazole carboxamide scaffold-based derivatives as potential c-Met kinase inhibitors for cancer treatment” (Journal of Enzyme Inhibition and Medicinal Chemistry, 2023).

Assays:
[1] = molecular target: T1, c-Met (Homo sapiens, UniProt P08581); test: In vitro c-Met enzymatic assay (HTRF); format: biochemical; settings: HTRF assay; mean ± SD, triplicate; read-out: IC50 against c-Met
T1 construct: purchased Invitrogen (Waltham, MA)
T1 sequence (P08581 25-1390): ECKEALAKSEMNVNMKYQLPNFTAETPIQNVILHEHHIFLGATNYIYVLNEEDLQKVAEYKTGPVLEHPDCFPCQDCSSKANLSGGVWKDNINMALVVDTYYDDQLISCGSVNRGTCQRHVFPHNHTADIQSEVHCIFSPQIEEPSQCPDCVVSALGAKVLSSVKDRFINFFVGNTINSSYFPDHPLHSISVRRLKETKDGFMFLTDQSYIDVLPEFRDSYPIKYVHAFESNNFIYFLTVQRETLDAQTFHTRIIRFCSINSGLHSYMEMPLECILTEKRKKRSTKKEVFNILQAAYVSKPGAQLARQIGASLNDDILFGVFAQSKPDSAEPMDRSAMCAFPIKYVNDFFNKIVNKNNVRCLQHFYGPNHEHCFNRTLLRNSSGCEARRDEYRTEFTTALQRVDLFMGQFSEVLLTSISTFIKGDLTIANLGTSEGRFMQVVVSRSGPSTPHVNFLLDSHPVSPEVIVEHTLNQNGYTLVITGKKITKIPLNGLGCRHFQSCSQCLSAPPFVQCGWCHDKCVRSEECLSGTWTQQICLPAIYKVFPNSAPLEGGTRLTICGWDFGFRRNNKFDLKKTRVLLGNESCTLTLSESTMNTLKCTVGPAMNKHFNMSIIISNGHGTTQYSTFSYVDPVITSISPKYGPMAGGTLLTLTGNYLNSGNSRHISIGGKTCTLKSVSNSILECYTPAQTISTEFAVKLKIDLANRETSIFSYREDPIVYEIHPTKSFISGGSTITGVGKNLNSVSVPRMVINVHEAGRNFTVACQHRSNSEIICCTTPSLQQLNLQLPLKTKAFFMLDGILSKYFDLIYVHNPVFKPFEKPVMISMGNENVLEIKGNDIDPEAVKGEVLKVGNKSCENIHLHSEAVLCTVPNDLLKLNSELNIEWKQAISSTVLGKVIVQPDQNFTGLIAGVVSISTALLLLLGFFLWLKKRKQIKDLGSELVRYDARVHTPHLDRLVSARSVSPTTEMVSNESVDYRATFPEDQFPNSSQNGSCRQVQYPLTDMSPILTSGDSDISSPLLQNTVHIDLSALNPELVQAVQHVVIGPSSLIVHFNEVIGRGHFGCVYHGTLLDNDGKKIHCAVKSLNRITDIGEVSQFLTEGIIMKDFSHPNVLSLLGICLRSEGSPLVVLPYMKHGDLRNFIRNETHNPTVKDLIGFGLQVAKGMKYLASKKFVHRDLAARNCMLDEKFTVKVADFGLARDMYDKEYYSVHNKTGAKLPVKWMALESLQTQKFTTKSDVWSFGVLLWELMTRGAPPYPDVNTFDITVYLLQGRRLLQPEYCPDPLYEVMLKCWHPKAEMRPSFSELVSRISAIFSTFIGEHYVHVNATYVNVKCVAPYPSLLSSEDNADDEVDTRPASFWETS
Experimental: Inhibition of target compounds on c-Met kinase activity was measured by using the homogeneous time-resolved fluorescence (HTRF) assay.
The tyrosine kinases inhibitory activities of target compounds were evaluated in 384-well microtiter plates using purified kinases purchased from Invitrogen (Waltham, MA) by homogeneous time-resolved fluorescence (HTRF) assay. The HTRF KinEASE TK kit was performed according to the instructions. After the kinases and test compounds were incubated at 25–30 °C for 5 min, the kinase reactions were initiated by addition of 39 μL of kinase reaction buffer solution and incubated at 25–30 °C for 30 min. The reactions were quenched by addition 10 µL mixed detection solution. […] The inhibition rate (%) was calculated using the following equation: inhibition rate = [(activity of enzyme with tested compound – min)/(max – min)] × 100 (max: the enzyme activity in the presence of enzyme, substrates and cofactors; min: the enzyme activity in the presence of substrates, cofactors and in the absence of enzyme). IC50 value was calculated from the inhibition curve using GraphPad Prism 5.0 software (La Jolla, CA).

[2] = test system: A549; test: MTT antiproliferative assay, A549; settings: Homo sapiens, A549, 48 h, read-out: IC50 A549
Experimental: (§1) MTT assay was used to determine the cytotoxic activity of target compounds against different cell lines. […] Then, the cells were treated with five doses of test compounds (pre-dissolved in DMSO), and 0.1% DMSO was used as a negative control. […] The results expressed as IC50 were the average of three determinations calculated by using the Bacus Laboratories Incorporated Slide Scanner (Bliss) software.

[3] = test system: HT-29; test: MTT antiproliferative assay, HT-29; settings: Homo sapiens, HT-29, 48 h, read-out: IC50 HT-29
Experimental: as §1

[4] = test system: MKN-45; test: MTT antiproliferative assay, MKN-45; settings: Homo sapiens, MKN-45, 48 h, read-out: IC50 MKN-45
Experimental: as §1

[5] = test system: MDA-MB-231; test: MTT antiproliferative assay, MDA-MB-231; settings: Homo sapiens, MDA-MB-231, 48 h, read-out: IC50 MDA-MB-231
Experimental: as §1

[6] = test system: FHC; test: MTT cytotoxicity assay, normal FHC cells; settings: Homo sapiens, 48 h, read-out: IC50 FHC
Experimental: as §1

[7] = test system: HUVEC; test: MTT cytotoxicity assay, normal HUVEC cells; settings: Homo sapiens, 48 h, read-out: IC50 HUVEC
Experimental: as §1

Row | SMILES | IC50 [1] [µM] | melting point [°C] | IC50 [2] [µM] | IC50 [3] [µM] | IC50 [4] [µM] | IC50 [5] [µM] | IC50 [6] [µM] | IC50 [7] [µM]
1 | O=C(Nc1ccc(Oc2ccnc(Cl)c2)c(F)c1)c1nc(-c2ccc(F)c(F)c2)cs1 [Compound 51al, N-(4-((2-Chloropyridin-4-yl)oxy)-3-fluorophenyl)-4-(3,4-difluorophenyl)thiazole-2-carboxamide] | 0.00523 ± 0.00074 | 170 to 172 | 2.26 ± 0.68 | 1.94 ± 0.65 | 0.35 ± 0.07 | 5.82 ± 0.73 | 10.2 ± 1.65 | 6.14 ± 0.75
2 | O=C(Nc1ccc(Oc2ccnc(Cl)c2Cl)c(F)c1)c1nc(-c2ccc(F)c(F)c2)cs1 [Compound 51an, N-(4-((2,3-Dichloropyridin-4-yl)oxy)-3-fluorophenyl)-4-(3,4-difluorophenyl)thiazole-2-carboxamide] | 0.00373 ± 0.00062 | 156 to 158 | 1.32 ± 0.35 | 0.94 ± 0.27 | 0.15 ± 0.07 | 4.65 ± 0.93 | 9.54 ± 1.26 | 4.83 ± 0.69
3 | COc1cc2nccc(Oc3ccc(NC(=O)c4nc(-c5ccc(F)cc5)ns4)cc3)c2cc1OC [Compound 51b, N-(4-((6,7-Dimethoxyquinolin-4-yl)oxy)phenyl)-3-(4-fluorophenyl)-1,2,4-thiadiazole-5-carboxamide] | 0.0501 ± 0.00514 | 113 to 115 | 22.5 ± 3.15 | 26.5 ± 1.42 | 7.89 ± 1.35 | 38.6 ± 4.07 | > 100 | > 100
4 | COc1cc2nccc(Oc3ccc(NC(=O)c4nnc(-c5ccccc5)s4)cc3)c2cc1OC [Compound 51c, N-(4-((6,7-Dimethoxyquinolin-4-yl)oxy)phenyl)-5-phenyl-1,3,4-thiadiazole-2-carboxamide] | 0.0457 ± 0.00388 | 141 to 143 | 20.6 ± 1.96 | 29.3 ± 3.85 | 6.94 ± 1.06 | 34.7 ± 2.58 | 71.3 ± 5.25 | 53.5 ± 4.62
5 | COc1cc2nccc(Oc3ccc(NC(=O)c4nnc(-c5ccc(F)cc5)s4)cc3)c2cc1OC [Compound 51d, N-(4-((6,7-Dimethoxyquinolin-4-yl)oxy)phenyl)-5-(4-fluorophenyl)-1,3,4-thiadiazole-2-carboxamide] | 0.0415 ± 0.00276 | 136 to 138 | 19 ± 2.46 | 24.6 ± 1.87 | 6.65 ± 0.94 | 33.6 ± 4.35 | 68.6 ± 4.83 | 52.4 ± 3.85
6 | COc1cc2nccc(Oc3ccc(NC(=O)c4nc(-c5ccccc5)cs4)cc3)c2cc1OC [Compound 51e, N-(4-((6,7-Dimethoxyquinolin-4-yl)oxy)phenyl)-4-phenylthiazole-2-carboxamide] | 0.0345 ± 0.00465 | 63 to 65 | 16.6 ± 2.16 | 21.8 ± 1.66 | 5.86 ± 0.93 | > 50 | 64.5 ± 6.12 | 56.5 ± 4.81
7 | COc1cc2nccc(Oc3ccc(NC(=O)c4ncc(-c5ccccc5)s4)cc3)c2cc1OC [Compound 51g, N-(4-((6,7-Dimethoxyquinolin-4-yl)oxy)phenyl)-5-phenylthiazole-2-carboxamide] | 0.0394 ± 0.00325 | 260 to 262 | 17.4 ± 2.23 | 23.4 ± 1.58 | 6.21 ± 0.85 | 32.8 ± 2.23 | 54.5 ± 3.25 | 48.4 ± 2.54
8 | COc1cc2nccc(Oc3ccc(NC(=O)c4ncc(-c5ccc(F)cc5)s4)cc3)c2cc1OC [Compound 51h, N-(4-((6,7-Dimethoxyquinolin-4-yl)oxy)phenyl)-5-(4-fluorophenyl)thiazole-2-carboxamide] | 0.0354 ± 0.00503 | 252 to 254 | 16.8 ± 1.58 | 22.7 ± 3.32 | 5.97 ± 0.98 | 34.2 ± 2.82 | 50.2 ± 2.89 | 42.1 ± 4.35
9 | COc1cc2nccc(Oc3ccc(NC(=O)c4nc(-c5ccccc5)cs4)c(F)c3)c2cc1OC [Compound 51i, N-(4-((6,7-Dimethoxyquinolin-4-yl)oxy)-2-fluorophenyl)-4-phenylthiazole-2-carboxamide] | 0.0312 ± 0.00416 | 112 to 114 | 15.6 ± 1.86 | 22.9 ± 2.43 | 5.35 ± 0.84 | 35.5 ± 4.62 | 60.2 ± 5.33 | 44.3 ± 5.64
10 | COc1cc2nccc(Oc3ccc(NC(=O)c4nc(-c5ccccc5)cs4)cc3F)c2cc1OC [Compound 51j, N-(4-((6,7-Dimethoxyquinolin-4-yl)oxy)-3-fluorophenyl)-4-phenylthiazole-2-carboxamide] | 0.0295 ± 0.00342 | 90 to 92 | 13.8 ± 1.76 | 19.6 ± 2.89 | 4.58 ± 0.75 | 32.3 ± 2.78 | > 100 | 45.6 ± 5.12
11 | COc1cc2nccc(Oc3ccc(NC(=O)c4nc(-c5ccccc5)cs4)c(Cl)c3)c2cc1OC [Compound 51k, N-(2-Chloro-4-((6,7-dimethoxyquinolin-4-yl)oxy)phenyl)-4-phenylthiazole-2-carboxamide] | 0.033 ± 0.00266 | 201 to 203 | 14.5 ± 1.64 | 23.4 ± 4.32 | 6.87 ± 0.86 | 33.3 ± 4.21 | > 100 | > 100
12 | COc1cc2nccc(Oc3ccc(NC(=O)c4nc(-c5ccccc5)cs4)cc3Cl)c2cc1OC [Compound 51l, N-(3-Chloro-4-((6,7-dimethoxyquinolin-4-yl)oxy)phenyl)-4-phenylthiazole-2-carboxamide] | 0.0319 ± 0.00451 | 146 to 148 | 13.2 ± 2.41 | 20.9 ± 3.56 | 6.23 ± 0.72 | 32.1 ± 2.54 | 51.6 ± 3.96 | 40.9 ± 2.32
13 | COc1cc2nccc(Oc3ccc(NC(=O)c4nc(-c5ccccc5)cs4)c(C)c3)c2cc1OC [Compound 51m, N-(4-((6,7-Dimethoxyquinolin-4-yl)oxy)-2-methylphenyl)-4-phenylthiazole-2-carboxamide] | 0.0398 ± 0.00547 | 209 to 211 | 14.1 ± 1.87 | 22.3 ± 1.75 | 6.43 ± 0.76 | 35.2 ± 4.23 | 49.6 ± 5.04 | 38.8 ± 3.55
14 | COc1cc2ncnc(Oc3ccc(NC(=O)c4nc(-c5ccccc5)cs4)cc3F)c2cc1OC [Compound 51o, N-(4-((6,7-Dimethoxyquinazolin-4-yl)oxy)-3-fluorophenyl)-4-phenylthiazole-2-carboxamide] | 0.0296 ± 0.00384 | 115 to 117 | 12.2 ± 1.63 | 18.7 ± 3.13 | 4.23 ± 0.96 | 29.6 ± 3.54 | 50.3 ± 3.58 | 36.6 ± 4.23
15 | COc1cc2ncnc(Oc3ccc(NC(=O)c4nc(-c5ccc(F)cc5)cs4)cc3F)c2cc1OC [Compound 51p, N-(4-((6,7-Dimethoxyquinazolin-4-yl)oxy)-3-fluorophenyl)-4-(4-fluorophenyl)thiazole-2-carboxamide] | 0.0247 ± 0.00195 | 188 to 190 | 9.83 ± 1.22 | 15.2 ± 2.26 | 3.17 ± 0.84 | 28.1 ± 1.96 | 46.4 ± 6.24 | 33.6 ± 2.68
